This experiment concerns the target T1, MCH receptor (Homo sapiens, UniProt Q99705).
T1 construct: expressed in transfected cells; host or cells: CHO cells (membranes)
The experiment in a line: MCH Receptor Binding Assay. Here is the method: MCH Receptor Binding Assay:
Membranes from CHO cells expressing the MCH receptor were prepared by lysing cells with 5 mM HEPES for 15 min at 4C. Cell lysates were centrifuged ([…], 15 min) and the pellet was resuspended in 5 mM HEPES. For each 96-well plate (Microlite, Dynex Technologies), 1 mg of cell membranes were incubated with 10 mg of wheat germ agglutinin SPA beads (Amersham) for 5 min at 4 C. in a volume of 10 ml of binding buffer (25 mM HEPES, 10 mM MGCl2, 10 mM NaCl, 5 mM MnCl2, 0.1% BSA). The membrane/bead mixture was centrifuged (1500×g, 3.5 min), the supernatant was aspirated, and the pellet was resuspended in 10 ml binding buffer. The centrifugation, aspiration and resuspension were then repeated. […] Nonspecific binding was determined by including 1 μM MCH in the binding reaction. The binding reaction was incubated at room temperature for 2 h. Plates were then analyzed in a TOPCOUNT microplate scintillation counter (Packard). Data was analyzed and Ki values were determined using GraphPad Prim.

Where [1] appears, read: Binding Activity, membranes from CHO cells expressing the MCH receptor, [125I]-MCH, read-out: MCH Ki.
[2] abbreviates: Table 1b, preferred compounds, read-out: MCH R1 Ki.

Where two headings read alike, the source gives them in different places.

T1 sequence (Q99705 whole entry): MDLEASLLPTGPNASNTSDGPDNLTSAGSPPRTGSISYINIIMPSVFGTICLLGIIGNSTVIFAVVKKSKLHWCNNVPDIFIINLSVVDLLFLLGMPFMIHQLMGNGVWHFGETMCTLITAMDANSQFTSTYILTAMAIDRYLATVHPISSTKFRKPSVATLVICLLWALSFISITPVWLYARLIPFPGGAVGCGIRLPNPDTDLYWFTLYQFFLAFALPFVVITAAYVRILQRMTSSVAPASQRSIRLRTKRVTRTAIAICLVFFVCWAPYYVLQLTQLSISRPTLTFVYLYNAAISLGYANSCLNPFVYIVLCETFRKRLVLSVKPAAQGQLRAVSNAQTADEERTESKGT

In the case of `CC(C)CN1CCN(CCN(C(=O)Nc2ccc(F)c(C(F)(F)F)c2)[C@@H]2CC[C@]3(c4cccc(C#N)c4)C[C@H]23)CC1` [Example 208], under setting [1], the Ki turned out to be 9 nM.

With `N#Cc1cccc([C@]23CC[C@@H](N(CCN4CCN(CC5CC5)CC4)C(=O)Nc4ccc(F)c(C(F)(F)F)c4)[C@H]2C3)c1` [Example 209], the Ki under setting [1] came to 10 nM.

With `N#Cc1cccc([C@]23CC[C@@H](N(CCN4CCNCC4)C(=O)Nc4ccc(F)c(C(F)(F)F)c4)[C@H]2C3)c1` [Example 210], the inhibition constant (Ki) under setting [1] came out at 20 nM.

On to `N#Cc1cccc([C@]23CC[C@@H](N(CCCCN4CCOCC4)C(=O)Nc4ccc(F)c(C(F)(F)F)c4)[C@H]2C3)c1` [Example 225], for which the Ki under setting [1] came to 2.6 nM.

As to `CN1CCN(CCCCN(C(=O)Nc2ccc(F)c(C(F)(F)F)c2)[C@@H]2CC[C@]3(c4cccc(C#N)c4)C[C@H]23)CC1` [Example 226], under setting [1], the Ki amounted to 2.2 nM.

On to `N#Cc1cccc([C@]23CC[C@@H](N(CCCCN4CCCCC4)C(=O)Nc4ccc(F)c(C(F)(F)F)c4)[C@H]2C3)c1` [Example 227], for which the inhibition constant Ki under setting [1] was determined as 1.6 nM.

In the case of `N#Cc1cccc([C@]23CC[C@@H](N(CCN4CC[C@@H](O)C4)C(=O)Nc4ccc(F)c(C(F)(F)F)c4)[C@H]2C3)c1` [drawing 636], under setting [2], the Ki was found to be 11 nM.

In the case of `N#Cc1cccc([C@@]23CC[C@@H](N(CCCN4CC[C@@H](O)C4)C(=O)Nc4ccc(F)c(Cl)c4)CC2C3)c1` (stereo partly drawn) [drawing 646], the inhibition constant Ki under setting [2] is 3 nM.

For `N#Cc1cccc([C@@]23CC[C@@H](N(CCN4CC[C@@H](O)C4)C(=O)Nc4ccc(F)c(C(F)(F)F)c4)CC2C3)c1` (stereo partly drawn) [drawing 651], under setting [2], the Ki is 6.2 nM.

Take `N#Cc1cccc([C@@]23CC[C@@H](N(CCN4CC[C@@H](O)C4)C(=O)Nc4ccc(F)c(C(F)(F)F)c4)CC2C3)c1` (stereo partly drawn) [drawing 655]: the Ki under setting [2] was 16 nM.

For the compound `N#Cc1cccc([C@@]23CC[C@@H](N(CCCN4CC[C@@H](O)C4)C(=O)Nc4ccc(F)c(Cl)c4)CC2C3)c1` (stereo partly drawn) [drawing 656], the Ki under setting [2] worked out at 1.8 nM.

Consider `N#Cc1cccc([C@]23CC[C@@H](N(CCN4CC[C@@H](O)C4)C(=O)Nc4ccc(F)c(C(F)(F)F)c4)[C@H]2C3)c1` [drawing 669], for which the Ki under setting [2] stood at 7.1 nM.

Consider `N#Cc1cccc([C@]23CC[C@@H](N(CCN4CCCCC4)C(=O)Nc4ccc(F)c(Cl)c4)[C@H]2C3)c1` [drawing 671], for which, under setting [2], the inhibitory constant (Ki) was 4.1 nM.

On to `CN(C)CCN(C(=O)Nc1ccc(F)c(Cl)c1)[C@@H]1CC[C@]2(c3cccc(C#N)c3)C[C@H]12` [drawing 673], for which the Ki under setting [2] turned out to be 14 nM.

With `N#Cc1cccc([C@]23CC[C@@H](N(CCCCN4CCCC4)C(=O)Nc4ccc(F)c(Cl)c4)[C@H]2C3)c1` [drawing 675], under setting [2], the Ki was determined as 3.9 nM.

Usually Ki stands for the equilibrium dissociation constant of an inhibitor or competing ligand from its target.

The record behind these values is patent US7348328B2, “MCH antagonists for the treatment of obesity” (Schering Corporation, priority 2001, dated 2008).
